One data set in a line: Foam height test. To be noted: for foam height, 30 sec / foam height, 1 min / foam height, 2 min / foam height, Initial Reading: 0.5 grams in 49.5 ml DI water; for foam height, 30 sec / foam height, 1 min / foam height, 2 min: 100 ml graduated cylinder; for foam height, Initial Reading: read in 100 ml graduated cylinder with 1 ml line increments; for Type of Foam: 0.5 grams of active in 49.5 ml DI water, blended 1 minute. Type of data set: physicochemical. As to the method:
The testing was performed on samples containing octenidine dihydrochloride, octenidine distearate, PHMB HCl and the chloride salts benzalkonium chloride, benzethonium chloride, and cetylpyridinium chloride.
A 250 ml beaker was filed with 49.5 ml of deionized (DI) water for each sample. Then, 0.5 grams of the active was added to the beaker. Each solution was blended with a Bamix® wand homogenizer/mixer for 1 minute. The solution was then poured into a 100 ml graduated cylinder with 1 ml line increments. The height of the foam was documented at an initial, 30 second, 1 minute, and 2 minute time point.

The test system of data set [1] is Staphylococcus haemolyticus (29970). Briefly: MIC test against skin microorganisms. To be noted: 48 hrs at 36° C., two different sets. Type of data set: cell-based. On the procedure: (§1) MICs for the organisms were determined using a standard 96-well microtiter plate assay in Trypic Soy Broth (TSB). […] Bacteria were grown in Tryptic Soy Broth or Brain Heart Infusion (E. hirae) for 24 hrs and were adjusted to one million cells per milliliter in same type of broth. Following incubation (48 hrs at 36° C.), the lowest concentration of test compound inhibiting growth was recorded as the Minimum Inhibitory Concentration (MIC). The actives were serially diluted and tested at final concentrations ranging from 156.3-0.61 ppm. MIC was run for two different sets.
(§2) Bacteria were grown overnight in Tryptic Soy Brother (TSB) or Brain Heart Infusion (BHI) and were adjusted to approximately 1×10^6 colony forming units per ml (cfu/ml) and used to inoculate the wells. Final bacterial concentration in the test wells was 5×10^5 cfu/ml. For Corynebacterium spp, TSB was used for the first set and BHI for the second set. Inoculated microtiter plates were incubated at 36° C. for 48 hours.
(§3) The lowest concentration of test compound inhibiting growth was recorded as the minimum inhibitory concentration.

Data set [2] has as its system Bacillus licheniformis (14580). Briefly: MIC test against skin microorganisms. Type of data set: cell-based. Particulars: 48 hrs at 36° C., two different sets. As to the method:
as §1, §2, §3

Data set [3] deals with Corynebacterium minutissimum (23348). Put plainly: MIC test against skin microorganisms. To be noted: 48 hrs at 36° C., TSB first set, BHI second set. The data set is classed as cell-based. As to the method:
as §1, §2, §3

In data set [4] the test system is Corynebacterium xerosis (373). Briefly: MIC test against skin microorganisms. Type of data set: cell-based. Particulars: 48 hrs at 36° C., TSB first set, BHI second set. As to the method: as §1, §2, §3
A further data set deals with Paecilomyces sp. Briefly: Minimum Inhibitory Concentration (MIC) test, 96-well microtiter plate. Type of data set: cell-based. To be noted: 48 hrs at 36° C., Sabouraud Dextrose Broth. On the procedure:
(§4) MICs for the organisms were determined using a standard 96-well microtiter plate assay in Tryptic Soy Broth (TSB) or Sabouraud Dextrose Broth (SDB). A stock solution (2500 ppm) of Octenidine distearate was prepared in methanol and stock solutions (2500 ppm) of Octenidine dihydrochloride and PHMB were prepared in absolute ethanol. […] Fungal inocula were grown up on Sabouraud Dextrose Agar plates (yeast) or Potato Dextrose Agar plates (mold) and mold spores and yeast cells were adjusted to approximately 100,000 per milliliter in Sabouraud Dextrose Broth (pH 5.6). Bacterial and fungal cultures were used to inoculate the serially diluted antimicrobials in the 96 well microplate and the plate was then incubated for 48 hrs at 36° C. The lowest concentration of test compound inhibiting growth at 48 hrs. (as determined by visual inspection) was recorded as the Minimum Inhibitory Concentration (MIC)

In data set [5] the test system is Penicillium pinophilium (11797). Described as above. Type of data set: cell-based. Particulars: 48 hrs at 36° C., Sabouraud Dextrose Broth. As to the method: as §4
Data set [6] concerns Aspergillus niger (16404). The data set is described as above. Type of data set: cell-based. Particulars: 48 hrs at 36° C., Sabouraud Dextrose Broth. On the procedure: as §4
Data set [7] has as its system Enterobacter gergoviae (33028). The data set is described as above. The data set is classed as cell-based. To be noted: 48 hrs at 36° C., visual inspection. As to the method: as §4
Data set [8] deals with Klebsiella pneumoniae (4352). The description is as above. The data set is classed as cell-based. To be noted: 48 hrs at 36° C., visual inspection. On the procedure: as §4
The subject of a further data set is LB penicillium sp. The data set is described as above. The data set is classed as cell-based. To be noted: 48 hrs at 36° C., Sabouraud Dextrose Broth. On the procedure: as §4
The subject of data set [9] is Gliocladium virens (9645). The data set is described as above. The data set is classed as cell-based. To be noted: 48 hrs at 36° C., Sabouraud Dextrose Broth. On the procedure: as §4
Data set [10] deals with Pseudomonas aeruginosa (15442). Described as above. To be noted: 48 hrs at 36° C., visual inspection. Type of data set: cell-based. As to the method: as §4
Data set [11] has as its system Staphylococcus aureus (6538). The description is as above. To be noted: 48 hrs at 36° C., visual inspection. Type of data set: cell-based. As to the method:
as §4

Data set [12] concerns Aureobasidium pullulans (9348). The description is as above. Type of data set: cell-based. To be noted: 48 hrs at 36° C., Sabouraud Dextrose Broth. On the procedure: as §4
In the next data set the test system is Bacillus subtilus (6633). Described as above. Type of data set: cell-based. To be noted: 48 hrs at 36° C., visual inspection. As to the method: as §4
Data set [13] relates to Pseudomonas aeruginosa (9027). The data set is described as above. Type of data set: cell-based. To be noted: 48 hrs at 36° C., visual inspection. As to the method: as §4
For the next data set, the system named is Escherichia coli (10536). Described as above. The data set is classed as cell-based. To be noted: 48 hrs at 36° C., visual inspection. On the procedure: as §4
Data set [14] relates to Enterococcus hirae (8043). Described as above. To be noted: 48 hrs at 36° C., visual inspection. Type of data set: cell-based. On the procedure:
as §4

In another data set the test system is Candida albicans (10231). The data set is described as above. Type of data set: cell-based. Particulars: 48 hrs at 36° C., Sabouraud Dextrose Broth. As to the method:
as §4

Take `CC(C)(C)CC(C)(C)c1ccc(OCCOCC[N+](C)(C)Cc2ccccc2)cc1` [Benzethonium Chloride, benzethonium chloride]: in the data set “Foam height test”, the “foam height, 30 sec” value turned out to be 107; the “foam height, 1 min” value came out at 107; the “foam height, 2 min” value is listed as 106; the “foam height, Initial Reading” value was 107. Also, in the data set “Foam height test”, the “Type of Foam” value is recorded as “Tight”.
Regarding “Polyhexamethylene biguanide stearate [PHMBS]”, the “MIC (ppm)” value in data set [1] was 2.44-4.88 ppm; in data set [2], 2.44-4.88 ppm; in data set [3] it was 0.61-4.88 ppm; in data set [4], 9.76 ppm.
Consider benzalkonium chloride, for which, in “Foam height test”, the “foam height, 30 sec” value worked out at 103; the “foam height, 1 min” value is reported as 102; the “foam height, 2 min” value is 102; the “foam height, Initial Reading” value is given as 103. In addition, in “Foam height test”, the “Type of Foam” value is recorded as “Tight”.
With “polyhexamethylene biguanide hydrochloride [PHMB]”, the “Minimum Inhibitory Concentration (MIC)” value in the data set on Paecilomyces sp. was 1250-5000 ppm; in [5] it was 2.44 ppm; in data set [6], 2.44 ppm; in [7] it was 1.22-2.44 ppm ^; in [8], 1.22-2.44 ppm ^; with LB penicillium sp., 1.22 ppm. The “Minimum Inhibitory Concentration (MIC)” value in data set [9] was 0.61 ppm; in [10], 4.88 ppm; in data set [11], 1.22-2.44 ppm ^; in [12], 1.22 ppm; in the data set on Bacillus subtilus (6633), 0.31-0.61 ppm ^; in [13], 2.44 ppm. Also, the “Minimum Inhibitory Concentration (MIC)” value with Escherichia coli (10536) came out at 1.22 ppm; in [14] it was 2.44 ppm; with Candida albicans (10231) it was 0.61 ppm. For the same compound, in the data set “Foam height test”, the “foam height, 30 sec” value is 85. Besides, the “foam height, 1 min” value in “Foam height test” stood at 80. The “foam height, 2 min” value in “Foam height test” came out at 75. Further, in “Foam height test”, the “foam height, Initial Reading” value was found to be 87. Further, the “Type of Foam” value in “Foam height test” is “Slightly loose”.

The values are drawn from patent US9687432B2, “Antimicrobial bispyridine amine compositions and uses” (LONZA INC., priority 2012, dated 2017).
